Assay results taken from patent US8206898B2, “RNA exit channel: target and method for inhibition of bacterial RNA polymerase” (priority 2003, dated 2012).

Experiments:
[1] = tested on: Escherichia coli hyper-permeable strain D21f2/TolC; assay: MIC of Lpm for Escherichia coli Lpm^R isolates from saturation mutagenesis and selection; assay type: cell-based
Protocol: To define systematically determinants for function of Lpm, saturation mutagenesis of Escherichia coli rpoB and rpoC was performed, and Lpm^R mutants were isolated and characterized (targeting codons or residues located within 20 Å of Bacillus subtilis Lpm^R sites in the three-dimensional structure of RNAP; methods as in Mukhopadhyay, et al., (2004) Mol. Cell, in press, except that selection was performed in hyper-permeable strain D21f2/TolC (rfa tolC; Fralick et al., (1994) J. Bacteriol. 176, 6404-6406)). 24 independent single-substitution Lpm^r mutants were identified (Table 2). The substitution sites define an approximately 20 Å×20 Å continuous surface, located within the RNA-exit-channel, spanning the target, and containing each residue of the target (i.e., residues 1251, 1256, and 1321 of β and residues 248-249 of β′; Table 2). Substitution sites corresponding to substitution sites in the Bacillus subtilis Lpm^R mutants described above were among those identified (i.e., residue 1256 of β and residues 249 and 337 of β′; Tables 1, 2).

[2] = target: RNAP-promoter open complex (RNAP holoenzyme, lacUV5-12 DNA fragment) (Escherichia coli, UniProt P0A8T7+P0A8V2); assay: Electrophoretic mobility-shift analysis of open-complex formation; assay type: biochemical; settings: 0-100 μm Lpm, added to RNAP before addition of the promoter DNA; FIG. 3
Sequence of RNAP-promoter open complex (RNAP holoenzyme, lacUV5-12 DNA fragment) (P0A7Z4 whole entry, the tested form may be a part): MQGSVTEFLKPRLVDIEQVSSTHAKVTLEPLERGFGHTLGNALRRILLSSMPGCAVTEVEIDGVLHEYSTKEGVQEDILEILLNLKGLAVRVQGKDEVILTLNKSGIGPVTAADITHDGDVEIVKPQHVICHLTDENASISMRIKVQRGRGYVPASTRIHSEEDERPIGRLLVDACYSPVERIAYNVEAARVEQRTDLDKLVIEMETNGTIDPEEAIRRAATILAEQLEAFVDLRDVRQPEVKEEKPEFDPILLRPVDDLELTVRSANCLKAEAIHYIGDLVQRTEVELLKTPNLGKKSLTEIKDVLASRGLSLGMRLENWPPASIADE
Sequence of RNAP-promoter open complex (RNAP holoenzyme, lacUV5-12 DNA fragment) (P0A8V2 whole entry, the tested form may be a part): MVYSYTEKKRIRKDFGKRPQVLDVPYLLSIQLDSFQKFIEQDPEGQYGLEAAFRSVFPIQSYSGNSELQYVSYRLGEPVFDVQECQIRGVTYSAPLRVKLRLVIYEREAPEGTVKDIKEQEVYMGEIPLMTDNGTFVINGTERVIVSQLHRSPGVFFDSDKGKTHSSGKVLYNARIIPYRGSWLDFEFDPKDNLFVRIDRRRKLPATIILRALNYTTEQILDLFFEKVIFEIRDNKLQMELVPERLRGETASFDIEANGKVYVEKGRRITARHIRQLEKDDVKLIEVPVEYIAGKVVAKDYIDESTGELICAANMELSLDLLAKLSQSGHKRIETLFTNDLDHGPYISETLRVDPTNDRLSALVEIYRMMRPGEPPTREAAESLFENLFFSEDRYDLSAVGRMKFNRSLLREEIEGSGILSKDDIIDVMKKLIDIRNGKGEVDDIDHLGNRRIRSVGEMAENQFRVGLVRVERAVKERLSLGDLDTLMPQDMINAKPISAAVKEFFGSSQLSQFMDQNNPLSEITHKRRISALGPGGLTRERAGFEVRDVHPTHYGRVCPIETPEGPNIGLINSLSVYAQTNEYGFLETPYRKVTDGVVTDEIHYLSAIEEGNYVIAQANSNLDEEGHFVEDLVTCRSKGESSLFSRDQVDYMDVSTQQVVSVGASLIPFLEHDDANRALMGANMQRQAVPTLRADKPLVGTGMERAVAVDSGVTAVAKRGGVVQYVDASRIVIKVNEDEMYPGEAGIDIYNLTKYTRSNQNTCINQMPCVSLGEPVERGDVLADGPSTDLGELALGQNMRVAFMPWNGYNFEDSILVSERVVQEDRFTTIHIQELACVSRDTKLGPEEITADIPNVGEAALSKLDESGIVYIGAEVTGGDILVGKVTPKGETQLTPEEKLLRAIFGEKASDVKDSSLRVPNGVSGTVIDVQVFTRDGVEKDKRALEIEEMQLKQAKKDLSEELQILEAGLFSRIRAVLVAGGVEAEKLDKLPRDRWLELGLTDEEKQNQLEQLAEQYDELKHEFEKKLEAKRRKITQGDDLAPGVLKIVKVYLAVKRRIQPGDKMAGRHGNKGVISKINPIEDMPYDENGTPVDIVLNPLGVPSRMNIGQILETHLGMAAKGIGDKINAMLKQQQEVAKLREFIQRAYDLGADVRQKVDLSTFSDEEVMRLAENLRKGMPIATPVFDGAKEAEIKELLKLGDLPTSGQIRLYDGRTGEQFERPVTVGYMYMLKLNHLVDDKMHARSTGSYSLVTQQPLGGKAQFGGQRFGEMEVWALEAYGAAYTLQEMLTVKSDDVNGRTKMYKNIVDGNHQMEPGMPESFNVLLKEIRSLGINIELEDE
Sequence of RNAP-promoter open complex (RNAP holoenzyme, lacUV5-12 DNA fragment) (P0A800 whole entry, further chain, the tested form may be a part): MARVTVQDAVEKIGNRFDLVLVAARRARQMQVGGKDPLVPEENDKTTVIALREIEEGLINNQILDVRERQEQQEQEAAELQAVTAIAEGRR
Sequence of RNAP-promoter open complex (RNAP holoenzyme, lacUV5-12 DNA fragment) (P00579 whole entry, further chain, the tested form may be a part): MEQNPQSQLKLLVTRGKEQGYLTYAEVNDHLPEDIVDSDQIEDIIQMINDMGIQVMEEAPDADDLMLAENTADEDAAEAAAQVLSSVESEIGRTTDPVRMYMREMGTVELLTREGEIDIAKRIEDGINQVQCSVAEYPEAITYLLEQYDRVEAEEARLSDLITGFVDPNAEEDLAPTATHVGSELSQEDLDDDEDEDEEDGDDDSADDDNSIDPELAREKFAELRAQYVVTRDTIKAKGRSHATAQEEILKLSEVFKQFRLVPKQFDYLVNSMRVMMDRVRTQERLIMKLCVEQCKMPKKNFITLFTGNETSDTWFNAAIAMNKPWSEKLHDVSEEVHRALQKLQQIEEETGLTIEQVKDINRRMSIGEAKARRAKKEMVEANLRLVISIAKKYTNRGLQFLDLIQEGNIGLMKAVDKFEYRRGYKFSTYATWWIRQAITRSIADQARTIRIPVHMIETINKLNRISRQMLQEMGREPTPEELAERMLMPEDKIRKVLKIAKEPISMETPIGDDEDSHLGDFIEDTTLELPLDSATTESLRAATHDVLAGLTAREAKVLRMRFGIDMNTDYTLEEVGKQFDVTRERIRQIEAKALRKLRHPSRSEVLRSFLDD
Sequence of RNAP-promoter open complex (RNAP holoenzyme, lacUV5-12 DNA fragment) (P0A8T7 whole entry, the tested form may be a part): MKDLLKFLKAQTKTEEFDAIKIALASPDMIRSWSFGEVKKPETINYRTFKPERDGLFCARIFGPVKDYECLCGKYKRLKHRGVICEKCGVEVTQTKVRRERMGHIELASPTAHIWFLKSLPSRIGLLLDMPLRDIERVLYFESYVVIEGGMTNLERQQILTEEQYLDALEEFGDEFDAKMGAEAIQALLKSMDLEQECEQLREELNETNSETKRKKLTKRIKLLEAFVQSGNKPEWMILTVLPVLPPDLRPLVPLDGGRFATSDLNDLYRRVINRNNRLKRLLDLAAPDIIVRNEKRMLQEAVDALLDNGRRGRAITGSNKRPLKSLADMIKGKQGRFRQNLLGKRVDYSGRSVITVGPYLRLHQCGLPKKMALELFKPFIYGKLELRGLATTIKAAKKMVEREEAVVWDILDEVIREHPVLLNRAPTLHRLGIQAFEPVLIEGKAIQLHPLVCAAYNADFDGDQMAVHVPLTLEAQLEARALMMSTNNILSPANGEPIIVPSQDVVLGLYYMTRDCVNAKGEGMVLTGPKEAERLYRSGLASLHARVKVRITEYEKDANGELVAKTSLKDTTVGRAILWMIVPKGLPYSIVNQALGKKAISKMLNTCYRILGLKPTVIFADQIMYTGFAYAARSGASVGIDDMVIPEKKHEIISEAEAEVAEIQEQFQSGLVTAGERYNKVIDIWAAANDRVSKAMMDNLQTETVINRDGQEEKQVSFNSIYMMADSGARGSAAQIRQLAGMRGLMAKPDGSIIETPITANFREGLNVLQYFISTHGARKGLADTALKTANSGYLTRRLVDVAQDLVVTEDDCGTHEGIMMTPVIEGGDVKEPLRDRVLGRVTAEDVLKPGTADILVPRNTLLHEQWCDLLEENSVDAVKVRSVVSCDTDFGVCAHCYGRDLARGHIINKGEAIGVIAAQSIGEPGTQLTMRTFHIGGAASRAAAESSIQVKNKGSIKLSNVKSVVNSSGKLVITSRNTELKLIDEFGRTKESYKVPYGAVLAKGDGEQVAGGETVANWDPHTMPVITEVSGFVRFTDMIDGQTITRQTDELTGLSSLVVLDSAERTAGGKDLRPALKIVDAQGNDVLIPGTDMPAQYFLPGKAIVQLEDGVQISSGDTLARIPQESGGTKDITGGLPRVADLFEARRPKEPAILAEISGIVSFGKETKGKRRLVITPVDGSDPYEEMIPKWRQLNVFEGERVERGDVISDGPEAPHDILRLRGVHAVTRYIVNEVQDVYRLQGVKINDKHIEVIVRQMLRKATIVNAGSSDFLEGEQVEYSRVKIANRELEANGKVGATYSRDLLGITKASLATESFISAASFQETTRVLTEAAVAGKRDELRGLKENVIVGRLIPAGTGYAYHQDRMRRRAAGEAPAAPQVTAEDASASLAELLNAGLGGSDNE
Protocol: To determine whether Lpm inhibits steps in transcription up to and including formation of the RNAP-promoter open complex, electrophoretic mobility-shift experiments were performed. The analysis of open-complex formation was performed as follows: reaction mixtures (20 μl) contained 100 nM RNAP holoenzyme, 20 nM fluorochrome-labeled DNA fragment lacUV5-12 (Cy5, +26) (Mukhopadhyay et al., 2001), and 0-100 μm Lpm in TB (50 mM Tris-HCl (pH 8.0), 100 mM KCl, 10 mM MgCl2, 1 mM dithiothreitol, 10 μg/ml bovine serum albumin, and 5% glycerol), added before or after the DNA. Following 15 min at 37° C., 0.5 μl 1 mg/ml heparin was added (to disrupt non-specific complexes), and, following a further 2 minutes at 37° C., reaction mixtures were applied to 5% polyacrylamide slab gels (30:1 acrylamide/bisacrylamide; 6×9×0.1 cm) and electrophoresed in 90 mM Tris-borate (pH 8.0) and 0.2 mM EDTA (20 V/cm; 30 min at 37° C.) and analyzed using a fluorescence scanner (Storm 860; Molecular Dynamics).

bacterial RNAP = settings: literature; cited from earlier work
[3] = tested on: Gram-positive bacteria and Gram-negative bacteria; settings: literature (Coronelli et al., 1975); cited from earlier work

lipiarmycin [Lpm]
MIC (mg/ml) (wild-type = 1) ([1]; RpoB 1251 Tyr→Phe): 10 fold relative to wild-type
MIC (mg/ml) (wild-type = 1) ([1]; RpoB 1256 Gln→Glu): 10 fold relative to wild-type
MIC (mg/ml) (wild-type = 1) ([1]; RpoB 1256 Gln→Leu): 5 fold relative to wild-type
MIC (mg/ml) (wild-type = 1) ([1]; RpoB 1302 Thr→Pro): 5 fold relative to wild-type
MIC (mg/ml) (wild-type = 1) ([1]; RpoB 1318 Gly→Ser): 5 fold relative to wild-type
MIC (mg/ml) (wild-type = 1) ([1]; RpoB 1319 Met→Arg): 10 fold relative to wild-type
MIC (mg/ml) (wild-type = 1) ([1]; RpoB 1319 Met→Lys): 5 fold relative to wild-type
MIC (mg/ml) (wild-type = 1) ([1]; RpoB 1321 Glu→Val): 5 fold relative to wild-type
MIC (mg/ml) (wild-type = 1) ([1]; RpoB 1325 Val→Ala): 10 fold relative to wild-type
MIC (mg/ml) (wild-type = 1) ([1]; RpoB 1325 Val→Leu): 5 fold relative to wild-type
MIC (mg/ml) (wild-type = 1) ([1]; RpoC 248 Asp→Tyr): 5 fold relative to wild-type
MIC (mg/ml) (wild-type = 1) ([1]; RpoC 249 Leu→Arg): 5 fold relative to wild-type
MIC (mg/ml) (wild-type = 1) ([1]; RpoC 337 Arg→Hys): 5 fold relative to wild-type
MIC (mg/ml) (wild-type = 1) ([1]; RpoC 337 Arg→Ser): 5 fold relative to wild-type
MIC (mg/ml) (wild-type = 1) ([1]; wild-type E. coli): (wild-type = 1) mg/ml
formation of the RNAP-promoter open complex [2]: inhibits formation of the RNAP-promoter open complex
inhibition of bacterial RNAP (bacterial RNAP): inhibits bacterial RNAP
antibacterial effectiveness [3]: effective against both Gram-positive bacteria and Gram-negative bacteria
